SMILES strings stand for the structures. Activity calls are given as the source filed them. No cut-off for these calls is given here.

Test [1] relates to Enterobacteria phage lambda. Description: Induction of Lambda phage supercoiled circular pBluescript KS II DNA cleavage assessed as double-stranded nick formation at 100 uM preincubated for 30 mins followed by UV light irradiation under aerobic condition measured after 15 mins by agarose gel electrophoresis.
For test [2], the system named is Enterobacteria phage lambda. The test can be described thus: Induction of Lambda phage supercoiled circular pBluescript KS II DNA cleavage assessed as single-stranded nick formation at 1000 uM preincubated for 30 mins followed by UV light irradiation under aerobic condition measured after 15 mins by agarose gel electrophoresis.
In test [3] the test system is Enterobacteria phage lambda. The test can be described thus: Induction of Lambda phage supercoiled circular pBluescript KS II DNA cleavage assessed as double-stranded nick formation at 1 uM preincubated for 30 mins followed by UV light irradiation under aerobic condition measured after 15 mins by agarose gel electrophoresis.
The test system of test [4] is Enterobacteria phage lambda. The test can be described thus: Induction of Lambda phage supercoiled circular pBluescript KS II DNA cleavage assessed as single-stranded nick formation at 1 uM preincubated for 30 mins followed by UV light irradiation under aerobic condition measured after 15 mins by agarose gel electrophoresis.
For test [5], the system named is Enterobacteria phage lambda. The test can be described thus: Induction of Lambda phage supercoiled circular pBluescript KS II DNA cleavage assessed as double-stranded nick formation at 1000 uM preincubated for 30 mins followed by UV light irradiation under aerobic condition measured after 15 mins by agarose gel electrophoresis.
The subject of test [6] is Enterobacteria phage lambda. Description: Induction of Lambda phage supercoiled circular pBluescript KS II DNA cleavage assessed as single-stranded nick formation at 10 uM preincubated for 30 mins followed by UV light irradiation under aerobic condition measured after 15 mins by agarose gel electrophoresis.
Test [7] relates to Enterobacteria phage lambda. The test can be described thus: Induction of Lambda phage supercoiled circular pBluescript KS II DNA cleavage assessed as single-stranded nick formation at 100 uM preincubated for 30 mins followed by UV light irradiation under aerobic condition measured after 15 mins by agarose gel electrophoresis.
For test [8], the system named is Enterobacteria phage lambda. The test can be described thus: Induction of Lambda phage supercoiled circular pBluescript KS II DNA cleavage assessed as double-stranded nick formation at 10 uM preincubated for 30 mins followed by UV light irradiation under aerobic condition measured after 15 mins by agarose gel electrophoresis.
For test [9], the system named is Enterobacteria phage lambda. Description: Induction of Lambda phage supercoiled circular pBluescript KS II DNA cleavage incubated for 30 mins by agarose gel electrophoresis in absence of UV light irradiation.
Test [10] relates to Enterobacteria phage lambda. Description: Induction of Lambda phage supercoiled circular pBluescript KS II DNA cleavage assessed as double-stranded nick formation at 100 uM preincubated for 30 mins followed by UV light irradiation under aerobic condition measured after 15 mins by agarose gel electrophoresis in presence of 20% DMSO.
For test [11], the system named is Enterobacteria phage lambda. The test can be described thus: Induction of Lambda phage supercoiled circular pBluescript KS II DNA cleavage assessed as single-stranded nick formation at 100 uM preincubated for 30 mins followed by UV light irradiation under aerobic condition measured after 15 mins by agarose gel electrophoresis in presence of NaN3.
Test [12] deals with Enterobacteria phage lambda. Description: Induction of Lambda phage supercoiled circular pBluescript KS II DNA cleavage assessed as double-stranded nick formation at 500 uM preincubated for 30 mins followed by UV light irradiation under aerobic condition measured after 15 mins by agarose gel electrophoresis.
The subject of test [13] is Enterobacteria phage lambda. Description: Induction of Lambda phage supercoiled circular pBluescript KS II DNA cleavage assessed as single-stranded nick formation at 100 uM preincubated for 30 mins followed by UV light irradiation measured after 15 mins by agarose gel electrophoresis in presence of argon.
Test [14] has as its system Enterobacteria phage lambda. Description: Induction of Lambda phage supercoiled circular pBluescript KS II DNA cleavage assessed as single-stranded nick formation at 100 uM preincubated for 30 mins followed by UV light irradiation under aerobic condition measured after 15 mins by agarose gel electrophoresis in presence of 20% DMSO.
In test [15] the test system is Enterobacteria phage lambda. Description: Induction of Lambda phage supercoiled circular pBluescript KS II DNA cleavage assessed as double-stranded nick formation at 100 uM preincubated for 30 mins followed by UV light irradiation measured after 15 mins by agarose gel electrophoresis in presence of argon.
The subject of test [16] is Enterobacteria phage lambda. The test can be described thus: Induction of Lambda phage supercoiled circular pBluescript KS II DNA cleavage assessed as single-stranded nick formation at 100 uM preincubated for 30 mins followed by UV light irradiation under aerobic condition measured after 15 mins by agarose gel electrophoresis in presence of D2O.
The test system of test [17] is Enterobacteria phage lambda. Description: Induction of Lambda phage supercoiled circular pBluescript KS II DNA cleavage assessed as single-stranded nick formation at 500 uM preincubated for 30 mins followed by UV light irradiation under aerobic condition measured after 15 mins by agarose gel electrophoresis.
In test [18] the test system is Enterobacteria phage lambda. The test can be described thus: Induction of Lambda phage supercoiled circular pBluescript KS II DNA cleavage preincubated for 30 mins followed by UV light irradiation under aerobic condition measured after 15 mins by agarose gel electrophoresis.
The subject of test [19] is Enterobacteria phage lambda. The test can be described thus: Induction of Lambda phage supercoiled circular pBluescript KS II DNA cleavage assessed as double-stranded nick formation at 100 uM preincubated for 30 mins followed by UV light irradiation under aerobic condition measured after 15 mins by agarose gel electrophoresis in presence of D2O.

`NC(=NOC(=O)c1ccc([N+](=O)[O-])cc1)c1ccccn1`: the Activity in [1] came out at 10%; in test [2], 73%; in test [3] it was 15%; in test [4], 70%; in test [5] it was 20%; in [7], 85%. The outcome in [6] and in test [8] was Active. Also, the outcome in [9] was inactive.

Consider `NC(=NOC(=O)c1ccc([N+](=O)[O-])cc1)c1cccnc1`, for which the Activity in test [10] worked out at 5%; in test [11], 16%; in test [1] it was 4%; in test [2], 64%; in test [12] it was 2%; in [3], 4%. Besides, the Activity in [4] is 56%; in [5], 36%; in test [13] it was 86%; in test [14], 83%; in test [15], 6%; in [16], 28%. Besides, the Activity in test [7] is 81%; in [17], 75%. Besides, the result in test [6] and in test [8] was Active. For the same compound, the result in test [9] was inactive.

`O=C(O/N=C/c1ccncc1)c1ccc([N+](=O)[O-])cc1`: the Activity in test [1] was determined as 9%; in test [2], 67%; in test [4] it was 28%; in test [5] it was 33%; in [7], 87%. Moreover, in [9], the result was inactive.

Turning to `N/C(=N\O)c1cccnc1`, the result in test [18] and in test [9] was inactive.

Regarding `COc1ccc(C(=O)O/N=C/c2cccnc2)cc1`, the Activity was determined as 35% in test [2], 0% in test [7] and 29% in test [17]. The outcome in test [9] was inactive.

Regarding `COc1ccc(C(=O)O/N=C(\N)c2cccnc2)cc1`, the Activity in test [2] was determined as 36%; in test [7] it was 0%; in test [17], 27%. Moreover, in test [9], the result was inactive.

As to `O=C(O/N=C/c1cccnc1)c1ccc([N+](=O)[O-])cc1`, the Activity in [10] is 20%; in [11], 23%; in test [1], 2%; in test [2], 84%; in test [12], 2%; in [4], 59%. The Activity in [5] was 13%; in test [13] it was 85%; in test [14], 75%; in test [15], 9%; in test [19] it was 8%; in [16], 85%. Further, the Activity worked out at 84% in [7] and 81% in [17]. Moreover, the outcome in test [9] was inactive.

For the compound `CC(=O)O/N=C(\N)c1cccnc1`, the Activity in test [2] is 0%; in test [7], 0%; in test [17], 6%. Further, the result in test [9] was inactive.

As to `N=C(NOC(=O)c1ccccc1)c1cccnc1`, the figures for the Activity in test [2], in [7] and in test [17] were 25%, 5% and 25%, respectively. Besides, the outcome in test [9] was inactive.

Take `O=C(O/N=C/c1cccnc1)c1ccccc1`: the Activity turned out to be 72% in [2], 1% in [5], 39% in test [7] and 38% in [17]. In addition, the outcome in test [9] was inactive.

`O=C(O/N=C/c1ccccn1)c1ccc([N+](=O)[O-])cc1`: the Activity came to 10% in [1]; 86% in test [2]; 46% in [4]; 7% in test [5]; 83% in test [7]. The result in [9] was inactive.

Turning to `N/C(=N\OC(=O)c1ccc([N+](=O)[O-])cc1)c1ccncc1`, the Activity in test [1] was determined as 7%; in test [2], 50%; in test [4], 25%; in [5] it was 50%; in test [7], 75%. In addition, the outcome in [6] and in test [8] was Active. Also, in test [9], the result was inactive.

For the compound `O/N=C/c1cccnc1`, the outcome in test [18] and in test [9] was inactive.
